Laboratory results published in patent publication US10188647B2, “Combination therapy using P53 activator and c-Met inhibitor” (Samsung Electronics Co., Ltd., priority 2013, dated 2019).

Columns and labels:
[1] = test system: MKN45 stomach cancer cell line; assay: MKN45 cell proliferation after sole or combined treatment (CTG); type: cell-based; conditions: 72 hours
Method: The effects obtained by the co-administration of L3-1Y antibody that is a c-Met antibody prepared in the above reference example and Nutlin-3a that is a p53 activator, were tested in MKN45 stomach cancer cell line.
In particular, RPMI1640 media (GIBCO) containing 10% FBS were added to a 96-well plate, to which MKN45 stomach cancer cell line (ATCC) was seeded at 10,000 cells/well, and then incubated overnight at 37° C. On the next day, the sole treatment of 0.1 ug/ml of L3-1Y antibody, the sole treatment of 0.5 uM of Nutlin-3a (#N6287, sigma) which is a p53 activator, and the combined treatment of 0.1 ug/ml of L3-1Y antibody and 0.5 uM (micromole) of Nutlin-3a were administered to the incubated cells. After 72 hours post-administration, a CTG solution was added to the wells at 100 ul per well and after 30 min., and cell numbers were counted to measure a cell proliferation level.

[2] = test system: MKN45 stomach cancer cell line; assay: Western blot of p53 and p21 expression/accumulation, MKN45 cells; type: cell-based; conditions: 24 hours
Method: (§1) The activation of cell signal transduction system after the co-administration of L3-1Y antibody that is a c-Met antibody prepared in the above reference example and Nutlin-3a that is a p53 activator, was tested in MKN45 stomach cancer cell line and Caki-1 cell line.
(§2) Particularly, RPMI1640 (for MKN45 cells) containing 10% FBS, and DMEM (for Caki-1 cells) media (GIBCO) were added to a 96-well plate, to which MKN45 cell line (ATCC) and Caki-1 cell line (both of them were all obtained from ATCC) were each seeded in an amount of […], and then incubated overnight at 37° C. On the next day, the sole treatment of L3-1Y antibody at a concentration of 0.1 ug/ml (MKN45 cells) and 5 ug/ml (Caki-1 cells), […], and the combined treatment of L3-1Y antibody at 0.1 ug/ml (MKN45 cells) and 5 ug/ml ([…], respectively) were administered. After 24 hours post-administration, c-Met inhibition and p53 activation were analyzed by western blot.

Caki-1 cell line [3] = test system: Caki-1 cell line; design: expression of p21: dose or concentration left out as unconfirmed; conditions: Caki-1 cells, 24 hours, western blot
Method: as §1, §2

c-Met = c-Met (Homo sapiens, UniProt P08581); assay: Specificity of expressed scFv to c-Met; type: binding; conditions: expressed scFv product
Caki-1 cell line [4] = assay: Caki-1 cell proliferation (BrdU assay), agonism of L3-1Y antibody; type: cell-based; conditions: sole treatment 10 ug/ml L3-1Y, serum-free, 24 hours
Method: The effects obtained by the co-administration of L3-1Y antibody that is a c-Met antibody prepared in the above reference example and Nutlin-3a that is a p53 activator, were tested in Caki-1 cell line.
Particularly, DMEM media (GIBCO) containing 10% FBS were added to a 96-well plate, to which Caki-1 cell line (ATCC) was seeded at 5,000 cells/well, and then incubated overnight at 37° C. On the next day, the media was replaced by serum-free media, which were then incubated for 24 hours. The sole treatment of 10 ug/ml of L3-1Y antibody, and the combined treatment of 0.1 ug/ml of L3-1Y antibody and 5 uM of Nutlin-3a were administered to the incubated cells. After 24 hours post-administration, a BrdU assay was conducted to measure the cell proliferation level.

[5] = sole treatment 0.5 uM Nutlin-3a
[6] = sole treatment 0.5 mM Nutlin-3a

c-Met, sequence (P08581 25-1390): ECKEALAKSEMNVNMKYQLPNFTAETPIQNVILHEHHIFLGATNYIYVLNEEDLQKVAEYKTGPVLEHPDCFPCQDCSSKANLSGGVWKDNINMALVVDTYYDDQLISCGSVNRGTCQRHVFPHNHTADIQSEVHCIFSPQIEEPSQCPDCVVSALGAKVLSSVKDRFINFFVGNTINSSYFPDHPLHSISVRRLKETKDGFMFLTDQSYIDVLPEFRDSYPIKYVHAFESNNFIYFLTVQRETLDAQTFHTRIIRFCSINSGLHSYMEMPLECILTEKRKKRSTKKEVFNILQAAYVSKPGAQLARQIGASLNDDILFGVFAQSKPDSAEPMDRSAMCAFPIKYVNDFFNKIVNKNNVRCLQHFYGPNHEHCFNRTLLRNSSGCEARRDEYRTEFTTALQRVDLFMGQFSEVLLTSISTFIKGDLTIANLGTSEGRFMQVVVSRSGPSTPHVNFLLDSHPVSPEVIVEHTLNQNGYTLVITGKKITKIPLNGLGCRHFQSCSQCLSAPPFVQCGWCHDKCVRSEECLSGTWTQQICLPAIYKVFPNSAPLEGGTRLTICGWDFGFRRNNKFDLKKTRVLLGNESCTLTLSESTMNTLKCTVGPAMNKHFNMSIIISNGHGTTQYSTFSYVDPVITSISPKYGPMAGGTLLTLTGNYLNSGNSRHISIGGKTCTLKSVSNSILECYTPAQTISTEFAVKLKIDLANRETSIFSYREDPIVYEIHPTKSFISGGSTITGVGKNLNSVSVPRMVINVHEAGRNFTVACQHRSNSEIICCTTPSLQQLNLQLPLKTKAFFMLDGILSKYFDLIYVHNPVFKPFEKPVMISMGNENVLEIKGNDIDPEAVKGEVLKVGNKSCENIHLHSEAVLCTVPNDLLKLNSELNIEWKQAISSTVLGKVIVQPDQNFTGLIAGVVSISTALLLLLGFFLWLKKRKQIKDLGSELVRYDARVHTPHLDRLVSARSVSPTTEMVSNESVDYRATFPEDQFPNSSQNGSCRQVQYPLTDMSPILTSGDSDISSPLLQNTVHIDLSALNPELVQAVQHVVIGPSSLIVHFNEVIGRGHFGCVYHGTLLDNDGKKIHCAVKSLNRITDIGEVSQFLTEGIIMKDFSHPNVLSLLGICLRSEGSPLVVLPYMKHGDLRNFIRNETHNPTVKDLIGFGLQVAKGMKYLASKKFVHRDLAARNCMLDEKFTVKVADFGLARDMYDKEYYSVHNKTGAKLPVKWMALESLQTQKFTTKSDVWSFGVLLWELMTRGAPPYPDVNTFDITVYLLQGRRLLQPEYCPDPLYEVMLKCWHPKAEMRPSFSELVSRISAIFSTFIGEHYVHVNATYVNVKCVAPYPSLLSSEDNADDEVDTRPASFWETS

With COc1ccc(C2=N[C@@H](c3ccc(Cl)cc3)[C@@H](c3ccc(Cl)cc3)N2C(=O)N2CCNC(=O)C2)c(OC(C)C)c1 [Nutlin-3a] the “suppressive effects of cell proliferation” value [1, 5] was “did not show suppressive effects of cell proliferation”, the “expression of p21” value [2, 5] was “accumulated” and the p53 accumulation [2, 6] was “accumulated”. The p53 accumulation (Caki-1 cell line [3]; [6]) was “accumulated” and the “expression of p21” value (Caki-1 cell line [3]; sole treatment) was “accumulated”.

B1: scFv of huAbF46: scFv with structure VH-linker-VL from heavy and light chain variable regions of huAbF46 antibody (protein)
scFv: EVQLVESGGGLVQPGGSLRLSCAASGFTFTDYYMSWVRQAPGKGLEWLGFIRNKANGYTTEYSASVKGRFTISRDNSKNTLYLQMNSLRAEDTAVYYCARDNWFAYWGQGTLVTVSSGLGGLGGGGSGGGGSGGSSGVGSDIQMTQSPSSLSASVGDRVTITCKSSQSLLASGNQNNYLAWHQQKPGKAPKMLIIWASTRVSGVPSRFSGSGSGTDFTLTISSLQPEDFATYYCQQSYSAPLTFGQGTKVEIKR
With B1 the “specificity to c-Met” value (c-Met) was “exhibit specificity to c-Met”.

B2: L3-1Y: anti c-Met antibody: huAbF46-H4-A1 heavy chain variable region, human IgG2 hinge and constant region, kappa light chain (antibody)
heavy: EVQLVESGGGLVQPGGSLRLSCAASGFTFTDYYMSWVRQAPGKGLEWLGFIRNKANGYTTEYSASVKGRFTISRDNSKNTLYLQMNSLRAEDTAVYYCARDNWFAYWGQGTLVTVSSASTKGPSVFPLAPCSRSTSESTAALGCLVKDYFPEPVTVSWNSGALTSGVHTFPAVLQSSGLYSLSSVVTVPSSNFGTQTYTCNVDHKPSNTKVDKTVERKCCVECPPCPAPPVAGPSVFLFPPKPKDTLMISRTPEVTCVVVDVSHEDPEVQFNWYVDGVEVHNAKTKPREEQFNSTFRVVSVLTVVHQDWLNGKEYKCKVSNKGLPAPIEKTISKTKGQPREPQVYTLPPSREEMTKNQVSLTCLVKGFYPSDIAVEWESNGQPENNYKTTPPMLDSDGSFFLYSKLTVDKSRWQQGNVFSCSVMHEALHNHYTQKSLSLSPGK
light: DIQMTQSPSSLSASVGDRVTITCKSSQSLLASGNQNNYLAWYQQKPGKAPKMLIIWASTRVSGVPSRFSGSGSGTDFTLTISSLQPEDFATYYCQQSYSRPYTFGQGTKVEIKRTVAAPSVFIFPPSDEQLKSGTASVVCLLNNFYPREAKVQWKVDNALQSGNSQESVTEQDSKDSTYSLSSTLTLSKADYEKHKVYACEVTHQGLSSPVTKSFNRGEC
B2 was tested, and the “suppressive effects of cell proliferation” value ([1]; sole treatment 0.1 ug/ml L3-1Y) was “about 10%” and the “promoted cell proliferation as compared to the media-only control” value (Caki-1 cell line [4]) was no less than 20%.
